Laboratory results reported in article PMC12546632, “The role of cytochrome bc1 inhibitors in future tuberculosis treatment regimens” (Nature Communications, 2025).
≈ marks a conversion by molar mass, not a printed value. Where “and” joins values, the source holds several entries; their conditions need not be identical. Equal entries are not always repeated. Entries after “also recorded” stand apart in the source; their conditions may differ. Where two headings read alike, the source gives them in different places. Marks after values point to notes of the source that are not given here.

Key:
[1] = test system: M. tuberculosis H37Rv; assay: MIC90 determination, H37Rv; assay type: cell-based, Mycobacterium tuberculosis; conditions: Mycobacterium tuberculosis
[2] = test system: M. tuberculosis reference strain H37Rv; assay: Survival under monotherapy in intravenous model (related to Study C); assay type: in vivo, Mycobacterium tuberculosis; conditions: for Day of death, individual mice: monotherapy, read with the 1/0 flag of the same line (96 with flag 0)
[3] = test system: M. tuberculosis clinical isolates; assay: microbe, parasite or virus in culture; assay type: cell-based, Mycobacterium tuberculosis; conditions: Mycobacterium tuberculosis
[4] = test system: M. tuberculosis ΔcydAB (Parent); assay: microbe, parasite or virus in culture; assay type: cell-based; conditions: Mycobacterium tuberculosis
[5] = molecular target: T1, 2C9 (Homo sapiens, UniProt P11712); assay type: in vitro ADME
T1 construct: from tissue; host or cells: human liver microsomes
T1 sequence (P11712 whole entry): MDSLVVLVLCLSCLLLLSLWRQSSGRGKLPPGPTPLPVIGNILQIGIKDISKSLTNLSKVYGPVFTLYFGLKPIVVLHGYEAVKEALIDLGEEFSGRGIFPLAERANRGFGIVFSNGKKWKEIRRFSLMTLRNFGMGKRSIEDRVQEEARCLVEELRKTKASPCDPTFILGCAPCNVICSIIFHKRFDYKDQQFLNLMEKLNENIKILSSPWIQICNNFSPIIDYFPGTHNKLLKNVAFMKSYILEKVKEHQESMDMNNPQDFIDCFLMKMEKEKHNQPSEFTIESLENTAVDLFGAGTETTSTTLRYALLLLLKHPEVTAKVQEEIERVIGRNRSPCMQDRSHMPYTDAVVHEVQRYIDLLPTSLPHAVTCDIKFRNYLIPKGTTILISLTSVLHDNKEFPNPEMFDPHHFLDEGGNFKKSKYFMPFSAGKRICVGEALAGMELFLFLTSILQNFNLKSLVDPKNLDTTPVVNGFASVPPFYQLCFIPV

[6] = test system: H37Rv_CytBd-KO; assay: microbe, parasite or virus in culture; assay type: cell-based, Mycobacterium tuberculosis; conditions: Mycobacterium tuberculosis; read-out: MBC99.9 (H37Rv_CytBd-KO)
[7] = molecular target: T2, 2C8 (Homo sapiens, UniProt P10632); assay type: in vitro ADME
T2 construct: from tissue; host or cells: human liver microsomes
T2 sequence (P10632 whole entry): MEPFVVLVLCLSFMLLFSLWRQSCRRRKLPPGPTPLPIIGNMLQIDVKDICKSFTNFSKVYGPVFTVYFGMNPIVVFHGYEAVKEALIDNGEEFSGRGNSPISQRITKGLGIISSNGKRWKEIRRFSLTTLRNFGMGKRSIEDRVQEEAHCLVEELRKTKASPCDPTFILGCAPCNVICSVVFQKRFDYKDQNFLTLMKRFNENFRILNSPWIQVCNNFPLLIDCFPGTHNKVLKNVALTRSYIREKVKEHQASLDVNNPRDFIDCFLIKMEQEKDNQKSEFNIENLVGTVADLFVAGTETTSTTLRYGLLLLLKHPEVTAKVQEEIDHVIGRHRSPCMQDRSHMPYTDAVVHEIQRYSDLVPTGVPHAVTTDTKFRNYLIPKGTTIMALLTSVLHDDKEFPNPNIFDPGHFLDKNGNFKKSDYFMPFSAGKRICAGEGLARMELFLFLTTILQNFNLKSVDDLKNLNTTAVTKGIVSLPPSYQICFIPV

[8] = test system: N1283 clinical isolate; assay type: cell-based, Mycobacterium tuberculosis; conditions: biological replicates
[9] = in vivo; conditions: female, Balb/c, mouse, po, 5 mg/kg
[10] = in vitro; conditions: human
[11] = test system: Salmonella typhimurium strains TA98 and TAMix
[12] = CD-1, mouse, in vivo
[13] = test system: H37Rv_CydBd-KO; assay: microbe, parasite or virus in culture; assay type: cell-based, Mycobacterium tuberculosis; conditions: Mycobacterium tuberculosis
[14] = test system: M. tuberculosis H37Rv; assay: MBC99.9 determination, H37Rv; assay type: cell-based, Mycobacterium tuberculosis; conditions: Mycobacterium tuberculosis, H37RV
[15] = test system: MDR-TB strains; conditions: cited from earlier work
[16] = test system: HepG2 cells; conditions: human, 24 h
[17] = test system: WT H37Rv; assay type: cell-based, Mycobacterium tuberculosis; conditions: biological replicates
[18] = in vivo; conditions: CD-1, mouse; for half-life: t½
[19] = test system: M. tuberculosis cytochrome bd knockout (CytBd-KO) strain; set-up: method as in PMID 40191462; conditions: acute mouse model; cited from earlier work
[20] = molecular target: T3, 2C19 (Homo sapiens, UniProt P33261); assay type: in vitro ADME
T3 construct: from tissue; host or cells: human liver microsomes
T3 sequence (P33261 whole entry): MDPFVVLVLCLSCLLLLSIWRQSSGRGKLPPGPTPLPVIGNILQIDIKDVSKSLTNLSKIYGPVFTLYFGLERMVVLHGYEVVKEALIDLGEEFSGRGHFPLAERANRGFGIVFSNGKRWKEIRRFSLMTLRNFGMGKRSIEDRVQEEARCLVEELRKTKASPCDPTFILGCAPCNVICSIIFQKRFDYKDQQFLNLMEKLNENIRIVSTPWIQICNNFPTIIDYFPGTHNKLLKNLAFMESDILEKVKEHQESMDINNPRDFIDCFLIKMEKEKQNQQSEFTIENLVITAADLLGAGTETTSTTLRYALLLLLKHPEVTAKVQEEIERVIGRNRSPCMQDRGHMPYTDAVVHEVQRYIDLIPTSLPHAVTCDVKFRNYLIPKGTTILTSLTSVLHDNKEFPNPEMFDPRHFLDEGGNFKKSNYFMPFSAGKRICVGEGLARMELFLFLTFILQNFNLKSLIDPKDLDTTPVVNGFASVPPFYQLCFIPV

[21] = female, Balb/c, mouse, in vivo, po, 5 mg/kg
[22] = assay type: in vitro ADME
Method: (§1) Details of the metabolic stability in liver microsomes and hepatocytes together with CYP inhibition in human liver microsomes and plasma protein binding have been published previously. The CYP induction assay was conducted by Puracyp Inc (www.puracyp.com). Studies were designed to evaluate the effect of compounds on the activation of human PXR (hPXR). The DPX2TM cells harbour the human PXR gene (NR1I2) and a luciferase reporter gene linked to two promoters identified in the human CYP3A4 gene, namely XREM and PXRE. These cells were seeded in a 96-well plate. Twenty-four hours after seeding, the cells were treated with various concentrations of compounds then incubated for an additional 24 h. Following this, the number of viable cells per well were determined using Promega’s CellTiter Fluor Cytotoxicity Assay. Briefly, One-Glo was added to the same wells and reporter gene activity was assessed. The luminescence light intensity was directly proportional to the extent of PXR activation and accompanying gene transcription in the DPX2TM cells.

[23] = molecular target: human PXR (hPXR) (Homo sapiens, UniProt O75469); assay type: in vitro ADME
Sequence of human PXR (hPXR) (O75469 whole entry): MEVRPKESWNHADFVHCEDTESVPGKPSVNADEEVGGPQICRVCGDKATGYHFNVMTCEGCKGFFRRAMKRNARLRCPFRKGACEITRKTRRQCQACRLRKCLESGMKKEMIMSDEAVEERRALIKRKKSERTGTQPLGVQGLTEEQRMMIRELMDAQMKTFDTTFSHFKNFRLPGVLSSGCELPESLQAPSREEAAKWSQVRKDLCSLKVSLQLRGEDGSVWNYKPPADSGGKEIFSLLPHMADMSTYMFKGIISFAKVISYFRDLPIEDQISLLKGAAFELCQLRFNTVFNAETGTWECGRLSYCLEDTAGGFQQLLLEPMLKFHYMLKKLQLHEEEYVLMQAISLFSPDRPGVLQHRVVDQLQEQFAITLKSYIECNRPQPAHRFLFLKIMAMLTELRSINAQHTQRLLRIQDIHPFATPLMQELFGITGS
Method: as §1

[24] = molecular target: T4, 2D6 (Homo sapiens, UniProt P10635); assay type: in vitro ADME
T4 construct: from tissue; host or cells: human liver microsomes
T4 sequence (P10635 whole entry): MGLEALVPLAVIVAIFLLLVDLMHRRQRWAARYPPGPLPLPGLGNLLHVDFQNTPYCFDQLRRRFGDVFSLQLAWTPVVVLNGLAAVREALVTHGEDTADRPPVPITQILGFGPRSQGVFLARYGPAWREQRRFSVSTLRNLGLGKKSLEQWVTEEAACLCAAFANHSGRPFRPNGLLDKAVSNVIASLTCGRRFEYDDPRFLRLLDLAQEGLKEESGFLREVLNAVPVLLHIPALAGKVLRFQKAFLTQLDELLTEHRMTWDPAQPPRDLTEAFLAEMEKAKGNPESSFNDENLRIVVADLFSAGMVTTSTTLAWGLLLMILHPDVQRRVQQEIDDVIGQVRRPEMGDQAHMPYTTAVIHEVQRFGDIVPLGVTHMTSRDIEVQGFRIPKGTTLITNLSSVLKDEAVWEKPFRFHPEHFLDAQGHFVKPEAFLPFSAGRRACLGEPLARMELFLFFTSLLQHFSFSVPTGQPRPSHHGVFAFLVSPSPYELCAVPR

[25] = in vitro; conditions: human; remark: listed apart in the source
[26] = molecular target: T5, 3A4 (Homo sapiens, UniProt P08684); assay type: in vitro ADME
T5 construct: from tissue; host or cells: human liver microsomes
T5 sequence (P08684 whole entry): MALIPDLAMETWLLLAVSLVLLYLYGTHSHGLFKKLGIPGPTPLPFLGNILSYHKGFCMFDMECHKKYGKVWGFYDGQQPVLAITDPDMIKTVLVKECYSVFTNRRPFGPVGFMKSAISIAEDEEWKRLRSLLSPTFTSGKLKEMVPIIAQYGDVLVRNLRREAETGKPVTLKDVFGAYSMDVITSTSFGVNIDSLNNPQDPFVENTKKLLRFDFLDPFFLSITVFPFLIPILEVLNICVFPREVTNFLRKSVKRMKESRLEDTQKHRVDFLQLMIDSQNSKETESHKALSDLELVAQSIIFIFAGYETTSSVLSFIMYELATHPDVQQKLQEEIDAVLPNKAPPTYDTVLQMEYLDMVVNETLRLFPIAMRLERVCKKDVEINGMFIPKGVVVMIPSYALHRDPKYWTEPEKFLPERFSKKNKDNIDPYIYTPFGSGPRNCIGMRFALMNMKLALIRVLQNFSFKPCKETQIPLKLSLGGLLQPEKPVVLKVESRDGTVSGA

[27] = molecular target: T6, 1A2 (Homo sapiens, UniProt P05177); assay type: in vitro ADME
T6 construct: from tissue; host or cells: human liver microsomes
T6 sequence (P05177 whole entry): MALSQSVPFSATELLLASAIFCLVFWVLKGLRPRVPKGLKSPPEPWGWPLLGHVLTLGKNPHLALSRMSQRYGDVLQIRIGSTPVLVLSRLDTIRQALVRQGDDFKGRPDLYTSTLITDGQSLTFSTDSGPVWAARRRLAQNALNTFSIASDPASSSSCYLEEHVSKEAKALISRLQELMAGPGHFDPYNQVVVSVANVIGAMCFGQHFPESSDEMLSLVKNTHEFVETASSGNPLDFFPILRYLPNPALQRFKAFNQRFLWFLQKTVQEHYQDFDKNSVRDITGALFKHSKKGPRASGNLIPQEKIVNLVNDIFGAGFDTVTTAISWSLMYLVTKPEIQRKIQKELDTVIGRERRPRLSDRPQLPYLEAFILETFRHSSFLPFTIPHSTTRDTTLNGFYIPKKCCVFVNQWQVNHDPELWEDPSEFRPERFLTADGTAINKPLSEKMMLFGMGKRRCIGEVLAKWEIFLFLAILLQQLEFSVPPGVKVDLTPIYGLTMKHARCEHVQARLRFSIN

[28] = assay type: in vitro ADME; conditions: hepatocytes

Compound: COc1nc2ccc(Br)cc2cc1[C@@H](c1ccccc1)[C@@](O)(CCN(C)C)c1cccc2ccccc12 [Bedaquiline, bedaquiline, reference compound]
- MIC90 ([1]; strain H37Rv (Institut Pasteur, lineage 4), read-out: MIC90): 0.197 µM (≈ 0.109 µg/mL)
- Survival of mice under monotherapy ([2]; in vivo, iv): 100%
- Day of death, individual mice ([2]; intravenous model): 96
- MIC90 ([3]; strain Mtb-0617 (Karonga, lineage 3)): 0.431 µM (≈ 0.239 µg/mL)
- MIC90 ([3]; strain Mtb-2703 (Karonga, lineage 3)): 0.064 µM (≈ 0.0356 µg/mL)
- MIC90 ([3]; strain Mtb-4779 (Karonga, lineage 2)): 0.045 µM (≈ 0.025 µg/mL)
- MIC90 ([3]; strain Mtb-4980 (Karonga, lineage 4)): 0.063 µM (≈ 0.035 µg/mL)
- MIC90 ([3]; strain Mtb-6787 (Karonga, lineage 4)): 0.053 µM (≈ 0.0294 µg/mL)
- MIC90 ([3]; strain Mtb-7489 (Karonga, lineage 1)): 0.43 µM (≈ 0.239 µg/mL)
- MIC90 ([3]; strain Mtb-7496 (Karonga, lineage 3)): 0.106 µM (≈ 0.0589 µg/mL)
- MIC90 ([3]; strain Mtb-9271 (Karonga, lineage 4)): 0.05 µM (≈ 0.0278 µg/mL)
- MIC90 ([3]; strain Mtb-61164 (Karonga, lineage 2)): 0.188 µM (≈ 0.104 µg/mL)
- MIC90 ([3]; strain N0054 (Gagneux, lineage 3)): 0.354 µM (≈ 0.197 µg/mL)
- MIC90 ([3]; strain N0072 (Gagneux, lineage 1)): 0.17 µM (≈ 0.0944 µg/mL)
- MIC90 ([3]; strain N1283 (Gagneux, lineage 4)): 0.104 µM (≈ 0.0578 µg/mL)
- MIC50 [4]: 0.05 µM (≈ 0.0278 µg/mL)

Compound: NNC(=O)c1ccncc1 [Isoniazid, isoniazid]
- MIC50 [4]: 0.51 µM (≈ 0.0699 µg/mL)

Compound: CCc1nc2ccc(Cl)cn2c1C(=O)NCc1ccc(C2CC3(C2)CN(S(=O)(=O)C(F)(F)F)C3)cc1 [JNJ-2901]
- IC50 [5]: > 10 µM
- MIC90 ([1]; H37RV, read-out: MIC90 (H37Rv)): 0.009 µM (≈ 0.00487 µg/mL)
- MBC [6]: 0.015 µM (≈ 0.00811 µg/mL)
- IC50 [7]: > 10 µM
- CFU counts ([8]; Conc 8 nM): 9000000 CFU and 800000 CFU and 200000 CFU
- CFU counts ([8]; Conc 32 nM): 110000 CFU and 300000 CFU and 80000 CFU and 50000 CFU
- CFU counts ([8]; Conc 128 nM): 20000 CFU and 50000 CFU and 90000 CFU and 80000 CFU
- Cmax [9]: 2310 ± 767 ng/mL
- AUC0-inf ([9]; AUC0-inf): 38500 ng·h/mL
- Cmax ([9]; Cmax, Balb/c mouse, PO 5 mg kg-1, 0.5 w/v Methocel (susp.)): 2660 ± 469 ng/mL
- half-life ([9]; t½): 8.6 ± 2.8 h
- IC50 at 24 h [10]: > 100 µM
- Mutagenicity (AMES II) [11]: negative
- Day of death, individual mice ([2]; intravenous model, listed as J-901): 16* and 20 and 54 and 26 and 77 and 82
- Survival of mice under monotherapy ([2]; intravenous model, six mice per group, treated for three months, 5 days per week, bedaquiline 25, moxifloxacin 100, JNJ-2901 10 mg kg-1): inability to rescue mice
- CLp as % LBF ([12]; iv, 1 mg/kg): ~ 9 % LBF
- AUC0-inf ([12]; female, po, 5 mg/kg): 5287 ± 656 ng·h/mL
- MIC90 [13]: 0.006 µM (≈ 0.00325 µg/mL)
- MBC [14]: > 0.5 µM
- activity against MDR-TB strains [15]: sub-nanomolar; also recorded: more active compared to lab-adapted strains
- IC50 [16]: > 100 µM
- CFU counts ([17]; Conc 8 nM): 80000000 CFU and 35000000 CFU and 53000000 CFU and 30000000 CFU
- CFU counts ([17]; Conc 32 nM): 60000000 CFU and 30000000 CFU and 17000000 CFU and 12000000 CFU
- CFU counts ([17]; Conc 128 nM): 20000000 CFU and 14000000 CFU and 12000000 CFU
- MRT ([18]; iv, 1 mg/kg): 9.1 ± 0.6 h
- Vd ([18]; iv, 1 mg/kg): 4.4 ± 0.8 L/kg
- clearance ([18]; iv, 1 mg/kg): 6.4 ± 1.6 mL/min/kg
- half-life ([18]; iv, 1 mg/kg): 12 ± 0.2 h
- bioavailability ([18]; female, po, 5 mg/kg): 70 ± 14%
- AUC0-inf ([18]; female, po, 5 mg/kg, AUC0-inf): 9500 ± 1850 ng·h/mL
- Cmax ([18]; female, po, 5 mg/kg, Cmax): 474 ± 29 ng/mL
- Tmax ([18]; female, po, 5 mg/kg, Tmax): 7 h
- half-life ([18]; female, po, 5 mg/kg): 10 h
- reduction in bacterial burden [19]: 4 log
- IC50 [20]: > 10 µM
- AUC0-inf [21]: 28500 ± 935 ng·h/mL
- Dog Hep Clint ([22]; hepatocytes): 13 µL min-1 106 cells-1
- Human Hep Clint ([22]; hepatocytes): 10 µL min-1 106 cells-1
- Rat Hep Clint ([22]; hepatocytes): 16 µL min-1 106 cells-1
- Dog LM Clint ([22]; microsomes): 13.1 µL min-1 mg protein-1
- Human LM Clint ([22]; microsomes): 63.3 µL min-1 mg protein-1
- Mouse LM Clint ([22]; microsomes): 41.0 µL min-1 mg protein-1
- Rat LM Clint ([22]; microsomes): 17.9 µL min-1 mg protein-1
- Cyp3A4 ind. (%ctrl) ([23]; 1.25 µM): 3.1 %ctrl
- Cyp3A4 ind. (%ctrl) ([23]; 10 µM): 11 %ctrl
- IC50 [24]: > 10 µM
- IC20 at 72 h [25]: 11.8 µM
- IC50 [26]: > 10 µM
- IC50 [27]: > 10 µM
- MIC50 [4]: 0.01 µM (≈ 0.00541 µg/mL)
- Mouse Hep Clint [28]: 15 µL min-1 106 cells-1
